Source: BindingDB's records for doi:10.1021/jm9805642 (Pharmacia and Upjohn, 1999)

Target: Cytosol aminopeptidase (Sus scrofa) (UniProt P28839)
Experiment: Inhibition against Leucyl aminopeptidase from pig kidney.

Sequence of Cytosol aminopeptidase (Sus scrofa) (P28839 whole entry, looked up): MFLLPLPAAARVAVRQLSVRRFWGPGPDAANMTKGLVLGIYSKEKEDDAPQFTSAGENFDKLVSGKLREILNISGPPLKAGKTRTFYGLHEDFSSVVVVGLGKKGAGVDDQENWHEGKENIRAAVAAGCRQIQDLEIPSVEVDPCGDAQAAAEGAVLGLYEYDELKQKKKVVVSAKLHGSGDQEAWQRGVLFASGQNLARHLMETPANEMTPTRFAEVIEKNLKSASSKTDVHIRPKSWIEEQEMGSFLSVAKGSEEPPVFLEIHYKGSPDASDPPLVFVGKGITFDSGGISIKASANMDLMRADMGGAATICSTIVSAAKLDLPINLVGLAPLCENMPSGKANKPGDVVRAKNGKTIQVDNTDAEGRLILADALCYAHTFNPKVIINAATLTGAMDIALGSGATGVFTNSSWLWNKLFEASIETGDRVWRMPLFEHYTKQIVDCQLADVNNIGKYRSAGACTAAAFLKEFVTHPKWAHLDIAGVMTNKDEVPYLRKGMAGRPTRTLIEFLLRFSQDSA

SMILES | IC50 [µM]
C[C@H](NC(=O)[C@@H]1CCCN1C(=O)[C@@H]1CC(O)CN1C(=O)[C@@H](O)[C@H](N)Cc1ccccc1)C(N)=O (stereo not given in full) [1-[1-(3-Amino-2-hydroxy-4-phenyl-butyryl)-4-hydroxy-pyrrolidine-2-carbonyl]-pyrrolidine-2-carboxylic acid (1-carbamoyl-ethyl)-amide] | 1.6
C[C@H](NC(=O)[C@@H]1CCCN1C(=O)[C@@H]1CCCN1C(=O)[C@@H](O)[C@H](N)Cc1ccccc1)C(N)=O [(S)-1-[(S)-1-((2S,3R)-3-Amino-2-hydroxy-4-phenyl-butyryl)-pyrrolidine-2-carbonyl]-pyrrolidine-2-carboxylic acid ((S)-1-carbamoyl-ethyl)-amide] | 0.3

Second part, the molecule after the results:

IC50 [µM] | SMILES
> 1000 | C[C@H](NC(=O)[C@@H]1CCCN1C(=O)C1CCCCC1C(=O)NO)C(N)=O (stereo partly drawn) [(S)-1-(2-Hydroxycarbamoyl-cyclohexanecarbonyl)-pyrrolidine-2-carboxylic acid ((S)-1-carbamoyl-ethyl)-amide]
> 1000 | C[C@H](NC(=O)[C@@H]1CCCN1C(=O)C1CCCC1S)C(N)=O (stereo partly drawn) [(S)-1-(2-Mercapto-cyclopentanecarbonyl)-pyrrolidine-2-carboxylic acid ((S)-1-carbamoyl-ethyl)-amide]
2.5 | NC(=O)[C@@H]1CCCN1C(=O)[C@@H]1CCCN1C(=O)[C@@H](O)[C@H](N)Cc1ccccc1 [(S)-1-[(S)-1-((2S,3R)-3-Amino-2-hydroxy-4-phenyl-butyryl)-pyrrolidine-2-carbonyl]-pyrrolidine-2-carboxylic acid amide]
